{"source": "patent US20050119224A1", "about": "“Use of n-acetyl-d-glucosamine in the manufacture of pharmaceutical useful for adjuvant treatment of perianal disease” (priority 2001, published 2005)", "key": {"[1]": {"test_system": "Pseudomonas aeruginosa", "test": "Test of resistance to field planting (Pseudomonas aeruginosa planting model)", "type": "in vivo, Mice of Kunming Species", "details": "three dosages (high, middle, low), infused abdominally each day, feces culture", "text": "1. Animal: Mice of Kunming Species, Provided by the 3rd Military Medical University P.R. China.\nFirstly, the animals used for experiment were infused abdominally with a suspension of Pseudomonas aeruginosa so as to make a Pseudomonas aeruginosa planting model, the mice that have Pseudomonas aeruginosa in the feces specimen cultured continuously for three days are deemed as positive. 32 mices which were positive in the experiment for making model were selected and divided into four groups, that is, three experimental groups with different dosages and one control group, eight mice in each group. The experimental groups are infused abdominally with N-acetyl-D glucosamine each day according to a schedule, while the control group is infused with saline solution. Cultivate the excrement every day, observe the saturation of Pseudomonas aeruginosa planting growth."}, "[2]": {"test_system": "liver lysosome membrane", "test": "Test of stabilizing lysosome membrane (rat model of endotoxin shock)", "type": "in vivo, wistar rat", "details": "rat with endotoxin shock, versus saline control", "text": "• 1. Animals: wistar rat, provided by the 3rd Military Medical University P.R. China. • 2. Method: setting up a rat model of endotoxin shock, at the same time, for the liver lysosome of rat, carry out a test of stabilizing membranes in vivo and in vitro. The model animals were divided into two groups, in the experimental group, N-acetyl-D-glucosamine was used to carry out the treatment, in the control group, saline solution was used to carry out the same treatment. The condition of liver lysosome mambrane was reflected by the activity of acidic phosphatase (ACP). • 3. Result: the activity of free ACP in the control group and that in the experimental group are obviously different. • 4. […] V. Human on Trial"}, "[3]": {"test": "Human on trial (clinic test, peri-anal diseases)", "type": "in vivo", "details": "pharmaceutical preparations made from the compound, humans suffering from peri-anal diseases"}}, "data": [{"smiles": "CC(=O)N[C@@H]1[C@@H](O)[C@H](O)[C@@H](CO)O[C@H]1O", "note": "[compound of formula (I), N-acetyl-D-glucosamine]", "values": [{"measurement": "resistance to Pseudomonas aeruginosa planting in intestines", "setting": "[1]", "value": "able to effectively resist Pseudomonas aeruginosa in intestines"}, {"measurement": "stabilization of liver lysosome membrane", "setting": "[2]; in vivo and in vitro", "value": "able to effectively stabilize liver lysosome membrane"}, {"measurement": "release of acidic phosphatase (ACP)", "setting": "[2]; liver lysosome", "value": "decrease the release of acidic phosphatase"}, {"measurement": "relief of peri-anal symptoms", "setting": "[3]", "value": "able to eliminate or relieve quickly the peri-anal uncomfortableness, pain, exudation, pruritus and the like"}]}]}
